This experiment has as its target Free fatty acid receptor 1 (Homo sapiens, UniProt O14842). Nature of the experiment: Modulation activity at human GPR40 expressed in HEK293 cells by IP-1 detection based HTRF assay. Background: In TR-FRET formats the signal depends on donor and acceptor labels being close together.

Structures are written as SMILES. pEC50: −log10 of the molar value.

Chain of Free fatty acid receptor 1 (O14842 whole entry): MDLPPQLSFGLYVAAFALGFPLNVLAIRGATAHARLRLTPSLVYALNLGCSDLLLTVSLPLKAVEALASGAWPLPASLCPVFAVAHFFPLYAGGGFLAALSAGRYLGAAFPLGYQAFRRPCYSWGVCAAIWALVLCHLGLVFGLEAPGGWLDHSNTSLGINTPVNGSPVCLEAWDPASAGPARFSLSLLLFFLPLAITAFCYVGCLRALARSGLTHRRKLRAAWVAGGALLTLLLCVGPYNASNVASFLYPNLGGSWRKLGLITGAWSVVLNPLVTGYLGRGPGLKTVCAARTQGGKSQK

`Cc1ccccc1Oc1ccc(N2N=C(C#N)CC2CC(=O)O)cc1` (stereo unspecified): the pEC50 (usually the EC50 on a negative log10 scale, so that one unit is a factor of ten) was 6.25.
